Experimental findings from ChEMBL document CHEMBL1833947, “Synthesis and biological investigation of potential atypical antipsychotics with a tropane core. Part 1” (Eur J Med Chem, 2011) are described below.

For test [1], the system named is Mus musculus. Put plainly: Antipsychotic activity in mouse assessed as reversal of apomorphine-induced mesh climbing response at 2.5 mg/kg, ip administered 10 mins prior to apomorphine challenge measured after 50 mins. Format: functional, organism-based. On the set-up: dose 2.5 mg/kg.
The test system of test [2] is Mus musculus. Put plainly: Antipsychotic activity in mouse assessed as reversal of apomorphine-induced mesh climbing response at 2.5 mg/kg, ip administered 10 mins prior to apomorphine challenge measured after 10 mins. Format: functional, organism-based. On the set-up: dose 2.5 mg/kg.
Test [3] relates to Mus musculus. Put plainly: Antipsychotic activity in mouse assessed as reversal of apomorphine-induced mesh climbing response at 2.5 mg/kg, ip administered 10 mins prior to apomorphine challenge measured after 20 mins. On the set-up: dose 2.5 mg/kg. The format is functional, organism-based.
The subject of test [4] is Mus musculus. Put plainly: Antipsychotic activity in mouse assessed as reversal of apomorphine-induced mesh climbing response at 2.5 mg/kg, ip administered 10 mins prior to apomorphine challenge measured after 30 mins. The format is functional, organism-based. On the set-up: dose 2.5 mg/kg.
For test [5], the system named is Mus musculus. Put plainly: Antipsychotic activity in mouse assessed as reversal of apomorphine-induced mesh climbing response at 2.5 mg/kg, ip administered 10 mins prior to apomorphine challenge measured after 60 mins. Format: functional, organism-based. On the set-up: dose 2.5 mg/kg.
In test [6] the target is T1, 5-hydroxytryptamine receptor 1A (Rattus norvegicus, UniProt P19327).
T1 sequence (P19327 whole entry): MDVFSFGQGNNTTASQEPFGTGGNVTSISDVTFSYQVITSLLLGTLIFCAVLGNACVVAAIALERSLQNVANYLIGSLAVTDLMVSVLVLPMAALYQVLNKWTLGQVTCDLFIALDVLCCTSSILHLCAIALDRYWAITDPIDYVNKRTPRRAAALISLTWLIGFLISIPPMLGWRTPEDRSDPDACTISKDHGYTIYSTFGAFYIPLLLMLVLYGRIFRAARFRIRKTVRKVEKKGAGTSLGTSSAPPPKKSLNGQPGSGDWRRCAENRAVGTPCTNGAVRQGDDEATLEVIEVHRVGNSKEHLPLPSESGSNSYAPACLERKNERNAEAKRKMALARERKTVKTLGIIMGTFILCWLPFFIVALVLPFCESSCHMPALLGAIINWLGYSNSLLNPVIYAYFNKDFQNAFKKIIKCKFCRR
Put plainly: Displacement of [3H]8OH-DPAT from 5HT1A in rat brain cerebral cortex after 15 mins by scintillation counting. The format is tissue-based. (Displacement assays read how much labelled ligand stays bound in the presence of the test substance.)

In test [7] the target is 5-hydroxytryptamine receptor 2A (Rattus norvegicus, UniProt P14842). Put plainly: Displacement of [3H]ketanserin from 5HT2A in rat brain cerebral cortex after 20 mins by scintillation counting. Format: tissue-based.
Sequence of 5-hydroxytryptamine receptor 2A (P14842 whole entry): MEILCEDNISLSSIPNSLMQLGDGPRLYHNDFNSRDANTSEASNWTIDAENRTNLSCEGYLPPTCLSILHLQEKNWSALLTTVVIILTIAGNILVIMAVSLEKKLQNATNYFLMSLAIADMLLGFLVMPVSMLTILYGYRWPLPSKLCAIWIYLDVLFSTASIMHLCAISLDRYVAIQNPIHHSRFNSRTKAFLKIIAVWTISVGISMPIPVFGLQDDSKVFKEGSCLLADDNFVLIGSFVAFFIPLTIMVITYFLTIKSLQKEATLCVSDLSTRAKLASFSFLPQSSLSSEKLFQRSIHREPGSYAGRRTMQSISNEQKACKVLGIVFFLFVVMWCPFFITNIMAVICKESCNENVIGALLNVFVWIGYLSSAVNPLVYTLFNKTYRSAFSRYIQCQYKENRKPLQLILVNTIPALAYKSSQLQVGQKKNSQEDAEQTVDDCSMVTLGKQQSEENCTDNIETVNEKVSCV
The target in another test is D(2) dopamine receptor (Rattus norvegicus, UniProt P61169). Put plainly: Displacement of [3H]spiperone from dopamine D2 receptor in rat striatum tissue after 20 mins by scintillation counting. Format: tissue-based.
Sequence of D(2) dopamine receptor (P61169 whole entry): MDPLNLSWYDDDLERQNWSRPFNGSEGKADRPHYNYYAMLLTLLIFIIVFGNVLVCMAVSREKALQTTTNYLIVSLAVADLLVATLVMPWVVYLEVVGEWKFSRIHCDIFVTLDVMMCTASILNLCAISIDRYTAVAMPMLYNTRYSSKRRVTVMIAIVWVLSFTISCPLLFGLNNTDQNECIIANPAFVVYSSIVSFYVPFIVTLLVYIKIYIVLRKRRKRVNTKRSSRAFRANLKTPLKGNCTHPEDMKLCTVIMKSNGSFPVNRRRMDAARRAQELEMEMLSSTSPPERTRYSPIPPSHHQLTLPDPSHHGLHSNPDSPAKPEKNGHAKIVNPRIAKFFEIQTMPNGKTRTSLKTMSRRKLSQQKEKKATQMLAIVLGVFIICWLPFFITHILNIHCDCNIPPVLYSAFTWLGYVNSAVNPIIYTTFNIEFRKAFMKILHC
Test [8] concerns Mus musculus. Put plainly: Antipsychotic activity in mouse assessed as reversal of apomorphine-induced mesh climbing response at 10 mg/kg, ip administered 10 mins prior to apomorphine challenge measured after 40 mins. The format is functional, organism-based. On the set-up: dose 10 mg/kg.
Test [9] deals with Mus musculus. Put plainly: Antipsychotic activity in mouse assessed as reversal of DOI-induced head twitches at 5 mg/kg, ip administered 30 mins before DOI challenge. The format is functional. The settings on record: route intraperitoneal.
In test [10] the test system is Mus musculus. Put plainly: Antipsychotic activity in mouse assessed as reversal of DOI-induced head twitches at 10 mg/kg, ip administered 30 mins before DOI challenge. The format is functional. Conditions: route intraperitoneal.
Test [11] has as its system Mus musculus. Put plainly: Antipsychotic activity in mouse assessed as reversal of DOI-induced head twitches at 20 mg/kg, ip administered 30 mins before DOI challenge. The settings on record: route intraperitoneal. Format: functional.
Test [12] concerns Mus musculus. Put plainly: Antipsychotic activity in mouse assessed as reversal of apomorphine-induced mesh climbing response at 50 mg/kg, ip administered 20 mins prior to apomorphine challenge measured after 120 mins.
Test [13] deals with Mus musculus. Put plainly: Antipsychotic activity in mouse assessed as reversal of apomorphine-induced mesh climbing response at 10 mg/kg, ip administered 10 mins prior to apomorphine challenge measured after 20 mins. Format: functional, organism-based. On the set-up: dose 10 mg/kg.
For test [14], the system named is Mus musculus. Put plainly: Antipsychotic activity in mouse assessed as reversal of apomorphine-induced mesh climbing response at 50 mg/kg, ip administered 10 mins prior to apomorphine challenge measured after 30 mins. The format is functional, organism-based. On the set-up: dose 50 mg/kg.

By Ki is commonly meant the dissociation constant of the complex between target and ligand, obtained from inhibition or displacement. Read a high Ki as weaker binding.

Activity calls are given as the source filed them. No cut-off for these calls is given here.

On to `CN1CCc2cccc3c2[C@H]1Cc1ccc(O)c(O)c1-3`, for which the result with Mus musculus [1], with Mus musculus [2], in the test with Mus musculus [3], in the test on Mus musculus [4] and in the test on Mus musculus [5] was inactive.

Consider `COc1ccccc1C(=O)N[C@H]1CC2CC[C@H](C1)N2Cc1ccco1` (single isomer, unassigned), for which the values for the inhibition constant (Ki) (in test [6]; in test [7]; on D(2) dopamine receptor) were 6.1 µM, 6 µM and 1 µM, respectively.

`COc1ccc(C(=O)N[C@H]2CC3CC[C@H](C2)N3Cc2ccco2)c(OC)c1` (single isomer, unassigned): the results for the Ki (in test [6]; in [7]; at D(2) dopamine receptor) were 19 µM, 1.3 µM and 0.652 µM, respectively.

On to `COc1ccc(OC)c(C(=O)N[C@H]2CC3CC[C@H](C2)N3Cc2ccco2)c1` (single isomer, unassigned), for which the Ki is 9.6 µM in test [6], 1.1 µM in [7] and 1.1 µM on D(2) dopamine receptor.

As to `COc1ccc(C(=O)N[C@H]2CC3CC[C@H](C2)N3Cc2ccco2)cc1OC` (single isomer, unassigned), the results for the Ki (in [6]; in test [7]; at D(2) dopamine receptor) were 57.3 µM, 7.9 µM and 68.8 µM, respectively.

On to `COc1cc(OC)cc(C(=O)N[C@H]2CC3CC[C@H](C2)N3Cc2ccco2)c1` (single isomer, unassigned), for which the values for the Ki (in test [6]; in [7]; at D(2) dopamine receptor) were 4.4 µM, 0.929 µM and 13.2 µM, respectively.

Consider `COc1cc(C(=O)N[C@H]2CC3CC[C@H](C2)N3Cc2ccco2)cc(OC)c1OC` (single isomer, unassigned), for which the Ki is 2.9 µM in [6], 1.1 µM in test [7] and 52.2 µM on D(2) dopamine receptor.

On to `COc1ccc(F)cc1C(=O)N[C@H]1CC2CC[C@H](C1)N2Cc1ccco1` (single isomer, unassigned), for which the Ki in [6] turned out to be 17.2 µM; in test [7], 1.4 µM; at D(2) dopamine receptor, 0.507 µM.

Turning to `COc1cc(Cl)ccc1C(=O)N[C@H]1CC2CC[C@H](C1)N2Cc1ccco1` (single isomer, unassigned), the Ki in [6] is 2.1 µM; in [7] it was 0.682 µM; at D(2) dopamine receptor, 0.174 µM. Also, the result in the test with Mus musculus [8] was inactive. Also, the Activity in the test on Mus musculus [9] worked out at 40%; in the test with Mus musculus [10], 40%; in the test on Mus musculus [11], 45%. In addition, in the test with Mus musculus [12], the result was Active.

For the compound `O=C(N[C@H]1CC2CC[C@H](C1)N2Cc1ccco1)c1ccc(Cl)cc1[N+](=O)[O-]` (single isomer, unassigned), the results for the Ki (in test [6]; in [7]; at D(2) dopamine receptor) were 16 µM, 32 µM and 19 µM, respectively.

On to `O=C(N[C@H]1CC2CC[C@H](C1)N2Cc1ccco1)c1cccc2ccccc12` (single isomer, unassigned), for which the Ki in [6] is 7.1 µM; in test [7] it was 2.3 µM; on D(2) dopamine receptor, 66.7 µM.

Consider `O=C(N[C@H]1CC2CC[C@H](C1)N2CC1CCCO1)c1ccccc1` (single isomer, unassigned), for which the Ki was 10.2 µM in test [6], 3.1 µM in test [7] and more than 100 µM on D(2) dopamine receptor.

Consider `COc1cccc(C(=O)N[C@H]2CC3CC[C@H](C2)N3CC2CCCO2)c1` (single isomer, unassigned), for which the figures for the Ki (in test [6]; in [7]; on D(2) dopamine receptor) were 10.3 µM, 1.1 µM and more than 100 µM, respectively.

In the case of `COc1ccc(Cl)cc1C(=O)N[C@@H]1CC2CC[C@H](C1)N2CC1CCCO1` (single isomer, unassigned), the Ki in test [6] is 4.6 µM; in test [7], 0.12 µM; on D(2) dopamine receptor it was 2.4 µM.

`COc1ccc(F)cc1C(=O)N[C@@H]1CC2CC[C@H](C1)N2CC1CCCO1` (single isomer, unassigned): the Ki in [6] was 10.1 µM; in [7], 1.1 µM; at D(2) dopamine receptor, 12.4 µM.

Turning to `O=C(N[C@@H]1CC2CC[C@H](C1)N2CC1CCCO1)c1cccc2ccccc12` (single isomer, unassigned), the values for the inhibitory constant (Ki) (in [6]; in test [7]; at D(2) dopamine receptor) were 3.1 µM, 0.394 µM and 4 µM, respectively.

Consider `O=C(N[C@@H]1CC2CC[C@H](C1)N2CC1CCCO1)c1ccc2ccccc2c1` (single isomer, unassigned), for which the Ki was determined as 3.3 µM in test [6], 0.0123 µM in test [7] and 1.2 µM at D(2) dopamine receptor. For the same compound, the figures for the Activity with Mus musculus [9], with Mus musculus [10] and in the test with Mus musculus [11] were 26%, 63% and 73%, respectively. For the same compound, the result in the test on Mus musculus [12] was Active.

In the case of `O=C(N[C@@H]1CC2CC[C@H](C1)N2Cc1ccccc1)c1cccc2ccccc12` (single isomer, unassigned), the Ki in [6] turned out to be 0.532 µM; in test [7] it was 0.394 µM; on D(2) dopamine receptor, 2.9 µM.

Consider `COc1cccc(C(=O)N[C@@H]2CC3CC[C@H](C2)N3Cc2ccccn2)c1OC` (single isomer, unassigned), for which the Ki amounted to 1.4 µM in test [6], 1 µM in test [7] and 0.0093 µM at D(2) dopamine receptor.

As to `COc1cccc(C(=O)N[C@@H]2CC3CC[C@H](C2)N3Cc2cccnc2)c1OC` (single isomer, unassigned), the Ki in [6] turned out to be 3.3 µM; in [7], 0.956 µM; at D(2) dopamine receptor, 0.0115 µM.

In the case of `COc1cccc(C(=O)N[C@@H]2CC3CC[C@H](C2)N3Cc2ccncc2)c1OC` (single isomer, unassigned), the Ki in test [6] came out at 2.5 µM; in test [7], 0.7 µM; at D(2) dopamine receptor it was 0.0283 µM.

For `COc1cccc(C(=O)N[C@@H]2CC3CC[C@H](C2)N3Cc2ccco2)c1OC` (single isomer, unassigned; 4b) [listing 1 of 2 here], the figures for the Ki (in test [6]; in test [7]; on D(2) dopamine receptor) were 3 µM, 0.745 µM and 0.0263 µM, respectively. Also, the Activity with Mus musculus [9] is reported as 33%; with Mus musculus [10], 28%; in the test with Mus musculus [11], 47%.

In the case of `COc1cccc(C(=O)N[C@@H]2CC3CC[C@H](C2)N3Cc2ccco2)c1OC` (single isomer, unassigned; 4b) [listing 2 of 2 here], in the test on Mus musculus [13], the result was inactive. Also, the outcome in the test with Mus musculus [14] and in the test on Mus musculus [12] was Active.

As for `COc1cccc(C(=O)N[C@@H]2CC3CC[C@H](C2)N3Cc2ccco2)c1OC` (single isomer, unassigned; 14a), the Ki in test [6] is more than 100 µM; in test [7] it was 2.5 µM; at D(2) dopamine receptor, more than 100 µM.

As for `COc1ccc(F)cc1C(=O)N[C@H]1C[C@H]2CC[C@@H](C1)N2Cc1ccco1` (stereo in doubt; 14b), the Ki in test [6] was more than 100 µM; in [7] it was 7 µM; at D(2) dopamine receptor, 44 µM.
